Test results from patent US8802664B2 (Bioproject, priority 2010, dated 2014).

molecular target: T1, human H4 receptor (Homo sapiens, UniProt Q9H3N8); experiment: [3H]Histamine binding on membranes of CHO cells stably expressing human H4 receptor
T1 construct: expressed in transfected cells
Procedure, shortened: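 Nonspecific binding defined with 10 μM JNJ 7777120. Bound radioactivity collected on polyethyleneimine-treated GF/B filters and counted by liquid scintillation.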

T1 sequence (Q9H3N8 whole entry): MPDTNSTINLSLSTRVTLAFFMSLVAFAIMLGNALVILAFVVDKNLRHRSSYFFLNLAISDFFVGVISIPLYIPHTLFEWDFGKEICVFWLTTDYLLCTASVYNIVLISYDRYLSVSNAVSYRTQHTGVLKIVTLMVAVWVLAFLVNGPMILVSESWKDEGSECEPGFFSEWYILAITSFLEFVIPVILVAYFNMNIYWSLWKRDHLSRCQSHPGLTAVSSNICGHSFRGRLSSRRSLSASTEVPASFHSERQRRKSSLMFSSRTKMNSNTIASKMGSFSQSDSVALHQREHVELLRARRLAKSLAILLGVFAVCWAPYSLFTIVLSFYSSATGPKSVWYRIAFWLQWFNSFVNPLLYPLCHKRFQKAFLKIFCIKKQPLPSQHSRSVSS

Row | SMILES | Ki or IC50 activity class [nM]
1 | CN1CCC(OC(c2cccc(SCCNC3=NCCS3)c2)c2nc3ccccc3[nH]2)CC1 (stereo not drawn) [Example 299, (2-{3-[(1H-benzimidazol-2-yl)(1-methylpiperidin-4-yloxy)methyl]phenyl-sulfanyl}ethyl)(4,5-dihydrothiazol-2-yl)amine] | < 1000
2 | CN1CCC(OC(c2cccc(I)c2)c2nc3ccccc3s2)CC1 (stereo not drawn) [Example 41, 2-[(3-iodophenyl)(1-methylpiperidin-4-yloxy)methyl]benzothiazole] | < 30
3 | COc1cc(F)cc(C(OC2CCN(C)CC2)c2nc3ccccc3s2)c1 (stereo not drawn) [Example 40, 2-[(3-fluoro-5-methoxyphenyl)(1-methylpiperidin-4-yloxy)methyl]benzothiazole] | < 30
4 | CN1CCC(OC(c2cccc(N3CCCC3CO)c2)c2nc3ccccc3s2)CC1 (stereo not drawn) [Example 323, (1-{3-[benzothiazol-2-yl(1-methylpiperidin-4-yloxy)methyl]phenyl}pyrrolidin-2-yl)methanol] | < 1000
5 | CN1CCC(OC(c2cccc(CCCCCN)c2)c2nc3ccccc3[nH]2)CC1 (stereo not drawn) [Example 312, 5-{3-[(1H-benzimidazol-2-yl)(1-methylpiperidin-4-yloxy)methyl]phenyl}pentylamine] | < 300
6 | CC(=O)OC1CCN(c2cccc(C(OC3CCN(C)CC3)c3nc4ccccc4s3)c2)CC1 (stereo not drawn) [Example 413, acetic acid 1-{3-[benzothiazol-2-yl(1-methylpiperidin-4-yloxy)methyl]phenyl}piperidin-4-yl ester] | < 300
7 | CN1CCC(OC(c2cccc(C#CCCO)c2)c2nc3ccccc3s2)CC1 (stereo not drawn) [Example 236, 4-{3-[benzothiazol-2-yl(1-methylpiperidin-4-yloxy)methyl]phenyl}but-3-yn-1-ol] | < 300
8 | CN1CCC(OC(c2cccc(C=CS(C)(=O)=O)c2)c2nc3ccccc3s2)CC1 (stereo not drawn) [Example 212, 2-[[3-(2-methanesulfonylvinyl)phenyl](1-methylpiperidin-4-yloxy)methyl]benzothiazole] | < 1000
9 | CN1CCC(OC(c2cccc(OCCNCC(=O)OC(C)(C)C)c2)c2nc3ccccc3s2)CC1 (stereo not drawn) [Example 370, (2-{3-[benzothiazol-2-yl(1-methylpiperidin-4-yloxy)methyl]phenoxy}ethylamino)acetic acid tert-butyl ester] | < 1000
10 | CN1CCC(OC(c2cccc(OCCCCN3CCOCC3)c2)c2nc3ccccc3s2)CC1 (stereo not drawn) [Example 322, 2-{(1-methylpiperidin-4-yloxy)[3-(4-morpholin-4-yl-butoxy)phenyl]methyl}benzothiazole] | < 1000
11 | CC(=O)CCCOc1cccc(C(OC2CCN(C)CC2)c2nc3ccccc3s2)c1 (stereo not drawn) [Example 186, 5-{3-[benzothiazol-2-yl(1-methylpiperidin-4-yloxy)methyl]phenoxy}pentan-2-one] | < 1000
12 | CN1CCC(OC(c2cccc(SCCCCNC(=N)N)c2)c2nc3ccccc3[nH]2)CC1 (stereo not drawn) [Example 444, N-(4-{3-[(1H-benzimidazol-2-yl)(1-methylpiperidin-4-yloxy)methyl]phenylsulfanyl}butyl)guanidine] | < 300
13 | CN1CCC(OC(c2cccc(SCCO)c2)c2nc3ccccc3[nH]2)CC1 (stereo not drawn) [Example 157, 2-{3-[(1H-benzimidazol-2-yl)(1-methylpiperidin-4-yloxy)methyl]phenylsulfanyl}ethanol] | < 300
14 | CN1CCC(OC(c2cccc(C#CCCN)c2)c2nc3ccccc3[nH]2)CC1 (stereo not drawn) [Example 286, 4-{3-[(1H-benzimidazol-2-yl)(1-methylpiperidin-4-yloxy)methyl]phenyl}but-3-ynylamine] | < 300
15 | CN1CCC(OC(c2cccc(CCc3cn(C)cn3)c2)c2nc3ccccc3s2)CC1 (stereo not drawn) [Example 306, 2-[{3-[2-(1-methyl-1H-imidazol-4-yl)ethyl]phenyl}(1-methylpiperidin-4-yloxy)methyl]benzothiazole] | < 300
16 | CCc1cccc(C(OC2CCN(C)CC2)c2nc3ccccc3s2)c1 (stereo not drawn) [Example 152, 2-[(3-ethylphenyl)(1-methylpiperidin-4-yloxy)methyl]benzothiazole] | < 30
17 | CN1CCC(OC(c2cccc(SC(C)(C)CCO)c2)c2nc3ccccc3s2)CC1 (stereo not drawn) [Example 242, 3-{3-[benzothiazol-2-yl(1-methylpiperidin-4-yloxy)methyl]phenylsulfanyl}-3-methyl-butan-1-ol] | < 1000
18 | CSc1cccc(C(OC2CCN(C)CC2)c2nc3ccccc3[nH]2)c1 (stereo not drawn) [Example 202, 2-[(1-methylpiperidin-4-yloxy)(3-methylsulfanyl-phenyl)methyl]-1H-benzimidazole] | < 30
19 | CN1CCC(OC(c2cccc(OCC3CCCNC3)c2)c2nc3ccccc3s2)CC1 (stereo not drawn) [Example 378, 2-{(1-methylpiperidin-4-yloxy)[3-(piperidin-3-ylmethoxy)phenyl]methyl}benzothiazole] | < 1000
20 | Brc1cccc(C(OCC2CNC2)c2nc3ccccc3[nH]2)c1 (stereo not drawn) [Example 502] | < 1000
21 | CN1CCC(OC(c2cccc(OCCCCCN)c2)c2nc3ccccc3s2)CC1 (stereo not drawn) [Example 371, 5-{3-[benzothiazol-2-yl(1-methylpiperidin-4-yloxy)methyl]phenoxy}pentylamine] | < 30

Row | SMILES | Ki or IC50 activity class [nM]
22 | C=CCOc1cccc(C(OC2CCN(C)CC2)c2nc3ccccc3s2)c1 (stereo not drawn) [Example 22, 2-[(3-allyloxyphenyl)(1-methylpiperidin-4-yloxy)methyl]benzothiazole] | < 30
23 | CN1CCC(OC(c2cccc(N3CCC(N(C)C)C3)c2)c2nc3ccccc3s2)CC1 (stereo not drawn) [Example 484] | < 30
24 | CN1CCC(OC(c2cccc(-c3cccc(CC#N)c3)c2)c2nc3ccccc3s2)CC1 (stereo not drawn) [Example 98, {3′-[benzothiazol-2-yl(1-methylpiperidin-4-yloxy)methyl]biphenyl-3-yl}acetonitrile] | < 300
25 | CN1CCC(OC(c2cccc(OCc3ccco3)c2)c2nc3ccccc3s2)CC1 (stereo not drawn) [Example 267, 2-[[3-(furan-2-ylmethoxy)phenyl](1-methylpiperidin-4-yloxy)methyl]benzothiazole] | < 30
26 | Cc1cc(C(NC2CCN(C)CC2)c2nc3ccccc3s2)ccc1F (stereo not drawn) [Example 35, [benzothiazol-2-yl(4-fluoro-3-methyl-phenyl)methyl](1-methylpiperidin-4-yl)amine] | < 1000
27 | CN1CCC(OC(c2cccc(C=CC(=O)OC(C)(C)C)c2)c2nc3ccccc3s2)CC1 (stereo not drawn) [Example 205, 3-{3-[benzothiazol-2-yl(1-methylpiperidin-4-yloxy)methyl]phenyl}acrylic acid tert-butyl ester] | < 1000
28 | CN1CCC(OC(c2cccc(C=CCCCN)c2)c2nc3ccccc3[nH]2)CC1 (stereo not drawn) [Example 421, 5-{3-[(1H-benzimidazol-2-yl)(1-methylpiperidin-4-yloxy)methyl]phenyl}pent-4-enylamine] | < 30
29 | CN1CCC(OC(c2cccc(OCCN3CCN(C(=O)OC(C)(C)C)CC3)c2)c2nc3ccccc3s2)CC1 (stereo not drawn) [Example 328, 4-(2-{3-[benzothiazol-2-yl(1-methylpiperidin-4-yloxy)methyl]phenoxy}ethyl)piperazine-1-carboxylic acid tert-butyl ester] | < 30
30 | CN1CCC(OC(c2cccc(-c3cccc(CO)c3)c2)c2nc3ccccc3[nH]2)CC1 (stereo not drawn) [Example 86, {3′-[(1H-benzimidazol-2-yl)(1-methylpiperidin-4-yloxy)methyl]biphenyl-3-yl}methanol] | < 300
31 | CN1CCC(OC(c2cccc(SCC3=NCCN3)c2)c2nc3cc(F)ccc3[nH]2)CC1 (stereo not drawn) [Example 463] | < 1000
32 | CCOCCn1c(C(OC2CCN(C)CC2)c2cccc(I)c2)nc2ccccc21 (stereo not drawn) [Example 497, 1-(2-ethoxyethyl)-2-[(3-iodophenyl)(1-methylpiperidin-4-yloxy)methyl]-1H-benzimidazole] | < 1000
33 | CN1CC(COC(c2cccc(Br)c2)c2nc3ccccc3[nH]2)C1 (stereo not drawn) [Example 506] | < 300
34 | CCCOc1cccc(C(NC2CCN(C)CC2)c2nc3ccccc3s2)c1 (single isomer, unassigned) [Example 56, [benzothiazol-2-yl(3-propoxyphenyl)methyl](1-methylpiperidin-4-yl)amine] | < 300
35 | CN1CCC(OC(c2cccc(N3CCCC3CO)c2)c2nc3ccccc3s2)CC1 (stereo not drawn) [Example 324, (1-{3-[benzothiazol-2-yl(1-methylpiperidin-4-yloxy)methyl]phenyl}pyrrolidin-2-yl)methanol] | < 300
36 | CN1CCC(OC(c2cccc(C#CCCN)c2)c2nc3ccccc3s2)CC1 (stereo not drawn) [Example 282, 4-{3-[benzothiazol-2-yl(1-methylpiperidin-4-yloxy)methyl]phenyl}but-3-ynylamine] | < 1000
37 | C=CCCCOc1cccc(C(OC2CCN(C)CC2)c2nc3ccccc3s2)c1 (stereo not drawn) [Example 168, 2-[(1-methylpiperidin-4-yloxy)(3-pent-4-enyloxy-phenyl)methyl]benzothiazole] | < 300
38 | CN1CCC(OC(c2cccc(-c3ccc(F)cc3)c2)c2nc3ccccc3[nH]2)CC1 (stereo not drawn) [Example 115, 2-[(4′-fluorobiphenyl-3-yl)(1-methylpiperidin-4-yloxy)methyl]-1H-benzimidazole] | < 300
39 | CN1CCC(OC(c2cccc(OCC3CCCCC3)c2)c2nc3ccccc3s2)CC1 (stereo not drawn) [Example 285, 2-[(3-Cyclohexylmethoxyphenyl)(1-methylpiperidin-4-yloxy)methyl]benzothiazole] | < 1000
40 | CN1CCC(OC(c2cccc(C#CCO)c2)c2nc3ccccc3s2)CC1 (stereo not drawn) [Example 227, 3-{3-[benzothiazol-2-yl(1-methylpiperidin-4-yloxy)methyl]phenyl}prop-2-yn-1-ol] | < 30
41 | COc1ccccc1-c1cccc(C(OC2CCN(C)CC2)c2nc3ccccc3s2)c1 (stereo not drawn) [Example 96, 2-[(2′-methoxybiphenyl-3-yl)(1-methylpiperidin-4-yloxy)methyl]benzothiazole] | < 300
42 | CN1CCC(COC(c2cccc(C#CCCCN)c2)c2nc3cc(F)ccc3[nH]2)C1 (stereo not drawn) [Example 462] | < 300
